Test results reported in PubChem BioAssay AID1918933 (Molecular Pharmacology Branch, DTP, NCI, 2023).

Tested on: 186277-243-T-J2-PDC complex spheroid viability
Test: Anticancer human tumor 186277-243-T-J2-PDC patient-derived colon adenocarcinoma cell line growth inhibition
Conditions: for IC50: curve of first compound; for viability, T/C: stronger effect = lower value
How it was run: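 Drug combinations with the LSD1 inhibitor iadademstat tested on tumor cells co-cultured as spheroids with endothelial cells and mesenchymal stem cells. Concentrations descended in half-log increments from clinical Cmax or 10 microM.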

[1] = second compound 0.1 µM, first compound 0.0316 µM
[2] = second compound 0.1 µM, first compound 0.1 µM
[3] = second compound 0.1 µM, first compound 0.316 µM
[4] = second compound 0.1 µM, first compound 1 µM
[5] = second compound 0.1 µM, first compound 3.16 µM
[6] = second compound 0.1 µM, first compound 10 µM
[7] = second compound 0.316 µM, first compound 0.0316 µM
[8] = second compound 0.316 µM, first compound 0.1 µM
[9] = second compound 0.316 µM, first compound 0.316 µM
[10] = second compound 0.316 µM, first compound 1 µM
[11] = second compound 0.316 µM, first compound 3.16 µM
[12] = second compound 0.316 µM, first compound 10 µM
[13] = second compound 1 µM, first compound 0.0316 µM
[14] = second compound 1 µM, first compound 0.1 µM
[15] = second compound 1 µM, first compound 0.316 µM
[16] = second compound 1 µM, first compound 1 µM
[17] = second compound 1 µM, first compound 3.16 µM
[18] = second compound 1 µM, first compound 10 µM
[19] = second compound 3.16 µM, first compound 0.0316 µM
[20] = second compound 3.16 µM, first compound 0.1 µM
[21] = second compound 3.16 µM, first compound 0.316 µM
[22] = second compound 3.16 µM, first compound 1 µM
[23] = second compound 3.16 µM, first compound 3.16 µM
[24] = second compound 3.16 µM, first compound 10 µM
[25] = second compound 10 µM, first compound 0.0316 µM
[26] = second compound 10 µM, first compound 0.1 µM
[27] = second compound 10 µM, first compound 0.316 µM
[28] = second compound 10 µM, first compound 1 µM
[29] = second compound 10 µM, first compound 3.16 µM
[30] = second compound 10 µM, first compound 10 µM
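Also: 7 day exposure to compounds.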
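For viability, T/C in this document: 100% = DMSO vehicle control viability.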

Row | SMILES | IC50 (second compound 0.1 µM) [µM] | IC50 (second compound 0.316 µM) [µM] | IC50 (second compound 1 µM) [µM] | IC50 (second compound 3.16 µM) [µM] | IC50 (second compound 10 µM) [µM] | viability, T/C [1] [%] | viability, T/C [2] [%] | viability, T/C [3] [%] | viability, T/C [4] [%] | viability, T/C [7] [%] | viability, T/C [8] [%] | viability, T/C [9] [%] | viability, T/C [10] [%] | viability, T/C [13] [%] | viability, T/C [14] [%] | viability, T/C [15] [%] | viability, T/C [16] [%] | viability, T/C [19] [%] | viability, T/C [20] [%] | viability, T/C [21] [%] | also measured
1 | CC(C)c1c(-c2ccccc2)nc2c(C#N)c[nH]n2c1=O + NC1CCC(NC2CC2c2ccccc2)CC1 | > 10 | > 10 | > 10 | > 10 | > 10 | 112 | 118 | 114 | 105 | 108 | 125 | 115 | 115 | 110 | 110 | 108 | 112 | 112 | 119 | 112 | viability, T/C [5]: 114%; viability, T/C [6]: 103%; viability, T/C [11]: 108%; viability, T/C [12]: 96.8%; viability, T/C [17]: 109%; viability, T/C [18]: 106%; viability, T/C [22]: 121%; viability, T/C [23]: 107%; viability, T/C [24]: 105%; viability, T/C [25]: 104%; viability, T/C [26]: 101%; viability, T/C [27]: 107%; viability, T/C [28]: 110%; viability, T/C [29]: 101%; viability, T/C [30]: 90.5%
2 | CC1COCCN1c1cc(-c2ccnn2C)c2ccnc(-c3ccn[nH]3)c2n1 (stereo not given) + NC1CCC(NC2CC2c2ccccc2)CC1 | 0.00656 | 0.00604 | 0.00563 | 0.00634 | 0.00591 | 10.9 | 9.28 | 10 | 11.5 | 10.2 | 8.48 | 9.85 | 11.8 | 11.1 | 8.48 | 9.78 | 12.1 | 10.4 | 8.64 | 9.76 | viability, T/C (second compound 0.1 µM, first compound 0.00316 µM): 84.2%; viability, T/C (second compound 0.1 µM, first compound 0.01 µM): 30.2%; viability, T/C (second compound 0.316 µM, first compound 0.00316 µM): 74.5%; viability, T/C (second compound 0.316 µM, first compound 0.01 µM): 30.9%; viability, T/C (second compound 1 µM, first compound 0.00316 µM): 69.3%; viability, T/C (second compound 1 µM, first compound 0.01 µM): 30.8%; viability, T/C (second compound 3.16 µM, first compound 0.00316 µM): 79.9%; viability, T/C (second compound 3.16 µM, first compound 0.01 µM): 30.4%; viability, T/C [22]: 12%; viability, T/C (second compound 10 µM, first compound 0.00316 µM): 71.8%; viability, T/C (second compound 10 µM, first compound 0.01 µM): 31.6%; viability, T/C [25]: 11%; viability, T/C [26]: 9.23%; viability, T/C [27]: 9.95%; viability, T/C [28]: 11.8%
3 | COc1ccc([C@@H](O)c2cc(-c3ncnc4cc(N5CCOCC5)ccc34)c(F)cc2Cl)nn1 + NC1CCC(NC2CC2c2ccccc2)CC1 | 4.32 | 4.43 | 4.48 | 4.3 | 3.86 | 112 | 119 | 112 | 93.2 | 128 | 143 | 105 | 100 | 116 | 118 | 108 | 109 | 122 | 126 | 122 | viability, T/C [5]: 67.3%; viability, T/C [6]: 7%; viability, T/C [11]: 72.7%; viability, T/C [12]: 5.45%; viability, T/C [17]: 68.7%; viability, T/C [18]: 6.38%; viability, T/C [22]: 97.9%; viability, T/C [23]: 67.5%; viability, T/C [24]: 5.71%; viability, T/C [25]: 109%; viability, T/C [26]: 118%; viability, T/C [27]: 104%; viability, T/C [28]: 101%; viability, T/C [29]: 59%; viability, T/C [30]: 5.79%
